In patent US9034891B2, “Bicyclic heterocyclic spiro compounds” (ISRAEL INSTITUTE FOR BIOLOGICAL RESEARCH, priority 2009, dated 2015):
Numbering of substitutions follows the chain as printed. “And” between values parts separate entries of the source, which are not always exact repeats. Equal values may be shown once. “Also recorded” adds a separate entry of the source. Read-outs that look alike come from different tables or passages of the source.

How the values were obtained:
[1] = target: sigma 2 receptor (Homo sapiens, UniProt Q5BJF2); experiment: Binding to sigma 2 receptor; details: 0.1 nM-10 μM
Chain of sigma 2 receptor (Q5BJF2 whole entry, species assumed): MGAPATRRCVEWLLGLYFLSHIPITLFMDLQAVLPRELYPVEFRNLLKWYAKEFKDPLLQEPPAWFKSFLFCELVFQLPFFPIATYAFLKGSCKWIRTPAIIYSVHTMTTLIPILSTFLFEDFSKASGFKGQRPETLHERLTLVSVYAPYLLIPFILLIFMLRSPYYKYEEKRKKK
Description: (§1) It was specifically designed to provide information not only on potential limitations of drug candidates, but also for off-target activity identification. […] In a further extension of this study, functional studies were done on most of these receptors.

[2] = target: T1, M1 mAChR (Homo sapiens, UniProt P11229)
T1 sequence (P11229 1-460): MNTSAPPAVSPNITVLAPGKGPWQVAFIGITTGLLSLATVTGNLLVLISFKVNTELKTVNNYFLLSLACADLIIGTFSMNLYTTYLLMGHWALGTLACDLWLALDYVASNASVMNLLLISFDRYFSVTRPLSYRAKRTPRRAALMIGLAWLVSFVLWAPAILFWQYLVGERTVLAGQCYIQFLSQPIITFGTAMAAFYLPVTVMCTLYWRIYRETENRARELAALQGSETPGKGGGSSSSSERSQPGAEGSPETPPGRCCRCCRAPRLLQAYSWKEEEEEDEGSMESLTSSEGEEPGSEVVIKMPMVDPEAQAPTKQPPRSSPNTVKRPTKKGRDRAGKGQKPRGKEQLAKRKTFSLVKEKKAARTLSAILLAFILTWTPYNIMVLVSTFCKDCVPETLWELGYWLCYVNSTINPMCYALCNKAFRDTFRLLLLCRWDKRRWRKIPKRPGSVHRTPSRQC

[3] = target: T2, 5HT2A receptor (Homo sapiens, UniProt P28223); experiment: Functional study, agonist or antagonist
T2 sequence (P28223 whole entry): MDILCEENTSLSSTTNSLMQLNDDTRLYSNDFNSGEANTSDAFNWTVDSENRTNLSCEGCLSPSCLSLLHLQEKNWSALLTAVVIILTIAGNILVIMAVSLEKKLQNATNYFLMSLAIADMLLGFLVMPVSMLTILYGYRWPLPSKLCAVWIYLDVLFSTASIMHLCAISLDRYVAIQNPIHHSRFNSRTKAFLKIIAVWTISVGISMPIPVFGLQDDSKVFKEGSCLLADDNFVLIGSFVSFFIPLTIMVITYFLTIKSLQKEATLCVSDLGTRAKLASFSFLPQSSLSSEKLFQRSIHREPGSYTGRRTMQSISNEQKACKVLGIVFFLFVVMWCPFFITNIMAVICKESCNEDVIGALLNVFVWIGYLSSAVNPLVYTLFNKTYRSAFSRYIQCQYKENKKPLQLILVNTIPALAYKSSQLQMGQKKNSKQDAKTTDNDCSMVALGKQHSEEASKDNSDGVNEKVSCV
Description: as §1

[4] = target: T3, Histamine 2 Receptor (Homo sapiens, UniProt P25021); experiment: Functional study, agonist or antagonist
T3 sequence (P25021 whole entry): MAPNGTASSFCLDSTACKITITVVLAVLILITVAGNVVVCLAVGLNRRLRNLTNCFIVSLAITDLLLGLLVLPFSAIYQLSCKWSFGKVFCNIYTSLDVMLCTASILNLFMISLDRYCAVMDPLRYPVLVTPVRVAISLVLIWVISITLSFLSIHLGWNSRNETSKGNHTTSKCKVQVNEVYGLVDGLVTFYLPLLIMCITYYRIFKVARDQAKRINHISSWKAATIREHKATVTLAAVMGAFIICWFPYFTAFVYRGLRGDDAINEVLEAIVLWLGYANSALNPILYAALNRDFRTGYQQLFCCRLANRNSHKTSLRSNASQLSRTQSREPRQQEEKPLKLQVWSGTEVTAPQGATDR
Description: as §1

[5] = target: T4, 5HT2C Receptor (Homo sapiens, UniProt P28335); experiment: Functional study, agonist or antagonist
T4 sequence (P28335 33-458): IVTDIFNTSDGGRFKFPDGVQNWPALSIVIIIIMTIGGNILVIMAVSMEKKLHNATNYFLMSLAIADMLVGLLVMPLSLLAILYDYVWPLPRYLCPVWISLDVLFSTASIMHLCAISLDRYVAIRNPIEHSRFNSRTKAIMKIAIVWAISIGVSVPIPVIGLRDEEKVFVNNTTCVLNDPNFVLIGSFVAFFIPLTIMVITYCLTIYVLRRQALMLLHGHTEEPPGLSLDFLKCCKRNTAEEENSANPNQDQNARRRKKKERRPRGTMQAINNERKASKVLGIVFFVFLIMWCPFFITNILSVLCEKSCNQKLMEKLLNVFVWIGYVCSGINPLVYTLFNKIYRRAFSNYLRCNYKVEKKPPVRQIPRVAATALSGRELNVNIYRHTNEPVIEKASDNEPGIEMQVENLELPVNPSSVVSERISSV
Description: as §1

[6] = target: 5HT2B Receptor (Homo sapiens, UniProt P41595); experiment: High-throughput profiling, binding at 10 μM
Chain of 5HT2B Receptor (P41595 whole entry): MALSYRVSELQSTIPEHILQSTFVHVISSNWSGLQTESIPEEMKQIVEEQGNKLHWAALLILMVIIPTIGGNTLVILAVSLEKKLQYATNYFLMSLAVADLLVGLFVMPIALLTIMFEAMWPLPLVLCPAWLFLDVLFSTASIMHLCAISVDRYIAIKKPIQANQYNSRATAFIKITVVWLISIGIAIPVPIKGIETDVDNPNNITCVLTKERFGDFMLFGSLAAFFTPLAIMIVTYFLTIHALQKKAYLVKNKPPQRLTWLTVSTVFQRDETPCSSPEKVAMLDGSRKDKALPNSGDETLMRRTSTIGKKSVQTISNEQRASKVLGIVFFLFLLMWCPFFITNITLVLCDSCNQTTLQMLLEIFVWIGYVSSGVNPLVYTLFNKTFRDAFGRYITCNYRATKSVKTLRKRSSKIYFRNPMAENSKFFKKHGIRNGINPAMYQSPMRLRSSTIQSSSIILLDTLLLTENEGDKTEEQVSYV
Description: as §1

[7] = system: Sigma Receptor; experiment: High-throughput profiling, binding at 10 μM
Description: as §1

[8] = target: T2, 5HT2A receptor; experiment: High-throughput profiling, binding at 10 μM
Description: as §1

[9] = target: M2 mAChR (Homo sapiens, UniProt P08172); experiment: High-throughput profiling, binding at 10 μM
Chain of M2 mAChR (P08172 whole entry): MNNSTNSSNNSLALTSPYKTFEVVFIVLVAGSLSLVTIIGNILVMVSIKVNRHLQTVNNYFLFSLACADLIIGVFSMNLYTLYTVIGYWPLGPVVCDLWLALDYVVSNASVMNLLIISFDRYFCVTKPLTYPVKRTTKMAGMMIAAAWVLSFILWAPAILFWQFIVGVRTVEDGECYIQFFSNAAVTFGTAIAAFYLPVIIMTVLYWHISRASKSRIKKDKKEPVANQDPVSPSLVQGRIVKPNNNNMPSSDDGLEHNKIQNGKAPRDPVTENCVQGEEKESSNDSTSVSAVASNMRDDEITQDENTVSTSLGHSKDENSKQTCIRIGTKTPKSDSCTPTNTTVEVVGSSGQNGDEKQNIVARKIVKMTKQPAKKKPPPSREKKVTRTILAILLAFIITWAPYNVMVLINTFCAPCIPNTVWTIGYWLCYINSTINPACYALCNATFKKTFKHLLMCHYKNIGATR
Description: as §1

[10] = target: Mu Receptor (Homo sapiens, UniProt P35372); experiment: High-throughput profiling, binding at 10 μM
Chain of Mu Receptor (P35372 whole entry): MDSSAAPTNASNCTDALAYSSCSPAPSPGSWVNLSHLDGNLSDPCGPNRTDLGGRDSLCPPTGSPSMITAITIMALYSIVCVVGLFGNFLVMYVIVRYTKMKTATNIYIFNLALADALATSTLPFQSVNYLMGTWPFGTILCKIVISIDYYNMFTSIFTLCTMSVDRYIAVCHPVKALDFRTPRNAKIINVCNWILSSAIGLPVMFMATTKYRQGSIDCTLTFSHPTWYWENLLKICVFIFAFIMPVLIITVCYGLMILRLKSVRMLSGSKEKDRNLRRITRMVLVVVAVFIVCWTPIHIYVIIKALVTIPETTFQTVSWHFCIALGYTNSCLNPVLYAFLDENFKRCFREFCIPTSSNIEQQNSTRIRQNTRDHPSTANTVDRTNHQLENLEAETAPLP
Description: as §1

[11] = target: T3, Histamine 2 Receptor; experiment: High-throughput profiling, binding at 10 μM
Description: as §1

[12] = target: 5HT Transporter (Homo sapiens, UniProt P31645); experiment: High-throughput profiling, binding at 10 μM
Chain of 5HT Transporter (P31645 whole entry, species assumed): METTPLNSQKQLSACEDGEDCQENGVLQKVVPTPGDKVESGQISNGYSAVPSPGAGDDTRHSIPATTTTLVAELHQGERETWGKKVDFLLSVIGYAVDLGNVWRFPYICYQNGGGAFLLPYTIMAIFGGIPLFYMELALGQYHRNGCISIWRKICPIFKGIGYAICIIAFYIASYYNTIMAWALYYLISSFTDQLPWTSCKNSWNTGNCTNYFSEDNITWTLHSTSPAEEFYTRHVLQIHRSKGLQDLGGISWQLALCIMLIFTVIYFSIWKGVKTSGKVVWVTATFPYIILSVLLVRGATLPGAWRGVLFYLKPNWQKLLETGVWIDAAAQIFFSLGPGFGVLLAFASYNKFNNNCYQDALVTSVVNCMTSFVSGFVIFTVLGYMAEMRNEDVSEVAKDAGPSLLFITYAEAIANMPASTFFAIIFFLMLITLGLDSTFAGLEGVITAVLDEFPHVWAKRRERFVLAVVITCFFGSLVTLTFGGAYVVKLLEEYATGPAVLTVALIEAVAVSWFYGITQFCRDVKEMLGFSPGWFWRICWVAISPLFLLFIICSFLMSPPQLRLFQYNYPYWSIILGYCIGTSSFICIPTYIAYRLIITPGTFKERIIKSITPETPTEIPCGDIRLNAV
Description: as §1

[13] = target: T4, 5HT2C Receptor; experiment: High-throughput profiling, binding at 10 μM
Description: as §1

[14] = target: T5, M1 mAChR (Rattus norvegicus, UniProt P08482); experiment: biochemical
T5 sequence (P08482 1-460): T1 sequence (P11229 1-460) with A5V, T254S, P309S, R320K, A337G, I413V

[15] = system: rats; experiment: Passive avoidance, MK-801-induced impairment in rats; assay type: in vivo, rat
Description: Trihexyphenidyl is a selective M1 muscarinic antagonist that crosses the blood brain barrier and induces memory and learning impairments (Bymaster et al., J Pharmacol Exp. Ther. 267: 16-24, 1993; Roldan et al., Neurosci. Lett. 230: 93-96, 1997; Kimura et al., Brain Res. 834: 6-12, 1999). […] Naive Wistar rats were used in the experiments below. The passive avoidance (PA) task consists of a training (acquisition) phase and a retention phase. In the training procedure each rat was individually placed in the small illuminated compartment and after 60 s. of familiarization/adaptation, the door to the large compartment was opened and the latency to enter was measured (Initial Latency) Immediately following entry into the dark compartment, the door was closed and inescapable foot shock (0.6 mA for 3 s) was delivered through the grid floor. […] After the acquisition trial the rat was returned to its home cage. Retention of the passive avoidance task was measured 24 h later, by again placing the rat in the light compartment and after a 60 s adaptation interval, the door was opened and the latency to re-enter the dark compartment was measured. […] Two separate experiments were conducted. […] In both experiments the rats were divided into 2 groups. One main group was treated with trihexyphenidyl (5 mg/kg, s.c) and the second main group was treated with vehicle (DDW-1 ml/kg, s.c.), 30 min before the shock.
MK-801 is an NMDA antagonist that induces cognitive behavioral impairments in rodents. […] In the first experiment (dose-finding study of MK-801) rats were divided into 4 groups. Three groups (N=27) were treated with MK-801 (50, 80 or 100 μg/kg, s.c) and the fourth group (N=10) was treated with vehicle (saline-1 ml/kg, s.c.), 30 min before the shock. […] One group (N=80) was treated with MK-801 (80 μg/kg, s.c) and the second group (N=59) was treated with the vehicle (saline-1 ml/kg, s.c.).

[16] = system: PC12 cells; experiment: Mitochondrial apoptosis pathway, Bax and Bcl-2 immunoreactivity in PC12 cells; assay type: cell-based, rat
Description: These cells were partially differentiated (2-3 days), as observed under microscope. […] The pellet (rich mitochondrial fraction) was re-suspended with 200 μl Ripa buffer and lysed by rapid passage through a syringe needle (23G) for five to six times. The lysate was then used for further evaluation.
Bands were probed using the Rabbit Bax antibody (1:1000, Cell signaling, Cat. No. 2772) and Rabbit Bcl-2 antibody (1:1000, Cell signaling, Cat. No. 2870) followed by anti rabbit IgG (H&L) HRP (1:5,000, Jackson Immuno Research, 111-035-144).

[17] = target: α-4β2 nicotinic receptor (Homo sapiens, UniProt P17787+P43681); experiment: Binding to α4β2 nicotinic receptor; details: 0.1 nM-10 μM
Chain of α-4β2 nicotinic receptor (P43681 29-627 limits assumed): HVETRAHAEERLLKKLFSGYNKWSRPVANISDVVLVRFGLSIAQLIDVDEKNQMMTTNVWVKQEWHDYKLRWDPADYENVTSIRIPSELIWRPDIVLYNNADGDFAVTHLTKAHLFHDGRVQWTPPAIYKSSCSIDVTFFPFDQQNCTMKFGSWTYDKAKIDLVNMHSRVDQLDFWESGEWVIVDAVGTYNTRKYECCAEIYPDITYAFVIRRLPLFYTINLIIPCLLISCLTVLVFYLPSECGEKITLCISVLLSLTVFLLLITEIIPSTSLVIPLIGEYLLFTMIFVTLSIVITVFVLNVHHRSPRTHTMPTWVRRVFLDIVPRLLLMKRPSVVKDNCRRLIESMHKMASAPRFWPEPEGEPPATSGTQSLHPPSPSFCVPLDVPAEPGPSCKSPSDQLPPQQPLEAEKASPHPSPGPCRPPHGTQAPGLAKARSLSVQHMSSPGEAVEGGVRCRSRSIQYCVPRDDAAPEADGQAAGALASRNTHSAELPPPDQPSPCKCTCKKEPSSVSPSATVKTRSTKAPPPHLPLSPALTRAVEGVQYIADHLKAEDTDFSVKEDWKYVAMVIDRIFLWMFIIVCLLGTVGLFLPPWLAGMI
Chain of α-4β2 nicotinic receptor (P17787 26-502): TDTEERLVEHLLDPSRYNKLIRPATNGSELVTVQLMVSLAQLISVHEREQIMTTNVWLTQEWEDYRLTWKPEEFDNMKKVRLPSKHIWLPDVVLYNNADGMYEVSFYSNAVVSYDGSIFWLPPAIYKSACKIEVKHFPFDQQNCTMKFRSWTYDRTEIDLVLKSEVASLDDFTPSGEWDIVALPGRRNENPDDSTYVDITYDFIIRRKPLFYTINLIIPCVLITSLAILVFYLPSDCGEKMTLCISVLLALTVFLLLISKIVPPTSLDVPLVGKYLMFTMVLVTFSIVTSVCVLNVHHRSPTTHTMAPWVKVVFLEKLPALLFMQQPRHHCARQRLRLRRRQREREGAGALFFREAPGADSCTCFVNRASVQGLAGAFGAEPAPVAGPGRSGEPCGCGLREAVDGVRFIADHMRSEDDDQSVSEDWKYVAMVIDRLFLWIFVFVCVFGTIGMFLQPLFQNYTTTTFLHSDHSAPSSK
Description: as §1

## C[C@@H]1SC2(CCN(C)CC2)CN1C(=O)CCc1c[nH]c2ccccc12 (single isomer, unassigned) [AF710B]
[1]
  binding to sigma 2 receptor: does not bind
[2]
  effect of brucine pre-incubation on elevation of intracellular calcium ions: no such effect; also recorded: slight inhibition
[3]
  agonist or antagonist activity on 5HT2A receptor: inactive
[4]
  agonist or antagonist activity on histamine 2 receptor: inactive
[5]
  agonist or antagonist activity on 5HT2C receptor: inactive
[6]
  binding to 5HT2B Receptor: binds
[7]
  binding to Sigma Receptor: binds
[8]
  binding to 5 HT2A Receptor: binds
[9]
  binding to M2 mAChR: binds
[10]
  binding to Mu Receptor: binds
[11]
  binding to Histamine 2 Receptor: binds
[12]
  binding to 5HT Transporter: binds
[13]
  binding to 5HT2C Receptor: binds
[14]
  Ki: 0.046 nM
[14]; KH, brucine experiment, without brucine
  Ki: 0.015 nM
[14]; KH, with brucine 0.1 mM
  Ki: 0.034 nM
[14]; KL, brucine experiment, without brucine
  Ki: 34000 nM
[14]; KL, with brucine 0.1 mM
  Ki: 15000 nM
[15]; 10 μg/kg po, MK-801 80 μg/kg sc, MK-801+DDW 94.7±24.7
  retention latency: 336.3 ± 70 s and 336.3 ± 70.0 s
[15]; 30 μg/kg po, MK-801 80 μg/kg sc
  retention latency: 370.0 ± 60 s and 370.0 ± 57.0 s
[15]; 100 μg/kg po, MK-801 80 μg/kg sc
  retention latency: 325.6 ± 66.6 s
[15]; 1, 3 and 5 or 300 μg/kg, po
  retention latency vs. MK-801 rats treated with DDW: not significantly different
[15]; AF710B 10 μg/kg with NE-100 1 mg/kg, MK801 80 μg/kg
  retention latency: 184.8 ± 58.0 s
[15]; AF710B 30 μg/kg with NE-100 1 mg/kg, MK801 80 μg/kg
  retention latency: 227.3 ± 38.5 s
[15]; po, MK801-induced passive avoidance impairment
  cognitive enhancer dose range: 0.01 to 0.1 mg/kg
[16]
  Bax elevation after NGF deprivation: attenuated Bax elevation
[16]; Rattus norvegicus, PC-12, 10 nM, read-out: Aβ 25-35 induced neurotoxicity expressed as Bax/Bcl2, maximum effect
  Emax at 0.01 µM: 35%
[17]
  binding to α-4β2 nicotinic receptor: does not bind
